Like-named read-outs stand apart in the source and are kept apart here.
How the values were obtained:
Type in all cases: cell-based
hGIPR = target: T1, hGIPR (Homo sapiens, UniProt P48546); test: Functional cAMP formation (HTRF) in HEK-293 clonal cells expressing hGIPR, 0.1% bovine casein, without or with 1.0% human serum albumin; settings: for Emax: percent of maximal response to GIP(1-42)NH2; for EC50: cAMP
T1 construct: expressed in transfected cells
T1 sequence (P48546 22-466): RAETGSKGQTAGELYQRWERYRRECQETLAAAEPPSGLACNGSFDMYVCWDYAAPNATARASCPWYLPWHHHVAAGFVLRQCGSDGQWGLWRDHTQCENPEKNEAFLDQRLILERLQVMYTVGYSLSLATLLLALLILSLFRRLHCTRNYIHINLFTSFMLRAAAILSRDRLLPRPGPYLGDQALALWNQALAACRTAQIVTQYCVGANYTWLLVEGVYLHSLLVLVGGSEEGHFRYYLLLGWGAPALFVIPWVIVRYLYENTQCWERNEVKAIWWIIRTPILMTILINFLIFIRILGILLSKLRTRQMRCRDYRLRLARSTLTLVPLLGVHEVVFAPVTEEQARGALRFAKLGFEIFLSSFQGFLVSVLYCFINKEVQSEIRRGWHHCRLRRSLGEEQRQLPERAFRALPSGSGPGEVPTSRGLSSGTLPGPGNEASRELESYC
Outline: (§1)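 Readings of the HTRF 665/620 nm ratio, which falls as cAMP rises, were converted to nM cAMP using a standard curve after 30 min peptide exposure at 37° C.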

hGCGR = target: T2, hGCGR (Homo sapiens, UniProt P47871); test: Functional cAMP formation (HTRF) in HEK-293 clonal cells expressing hGCGR, 0.1% bovine casein, without or with 1.0% human serum albumin; settings: 37° C.
T2 construct: expressed in transfected cells
T2 sequence (P47871 26-477): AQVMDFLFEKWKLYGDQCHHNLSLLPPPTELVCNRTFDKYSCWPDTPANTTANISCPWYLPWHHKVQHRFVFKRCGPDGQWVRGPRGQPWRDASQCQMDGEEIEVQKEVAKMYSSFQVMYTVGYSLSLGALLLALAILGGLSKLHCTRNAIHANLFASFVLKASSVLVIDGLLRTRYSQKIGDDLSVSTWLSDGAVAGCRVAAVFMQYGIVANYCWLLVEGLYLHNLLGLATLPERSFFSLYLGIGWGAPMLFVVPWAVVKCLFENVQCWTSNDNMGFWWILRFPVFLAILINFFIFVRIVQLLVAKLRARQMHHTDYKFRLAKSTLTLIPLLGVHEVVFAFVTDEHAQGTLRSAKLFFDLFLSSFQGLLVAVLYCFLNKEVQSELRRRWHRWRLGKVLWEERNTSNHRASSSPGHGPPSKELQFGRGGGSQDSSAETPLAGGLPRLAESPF
Outline: as §1

hGLP-1R = hGLP-1R (Homo sapiens, UniProt P43220); test: Functional cAMP formation (HTRF) in HEK-293 clonal cells expressing hGLP-1R, 0.1% bovine casein, without or with 1.0% human serum albumin; design: expressed in transfected cells; settings: 37° C.; for Emax: HEK293, cAMP, percent of maximal response to GLP-1(7-36)NH2, read-out: hGLP-1R Emax, % ± SEM; for EC50: cAMP, 0.1% bovine casein (no human serum albumin), geometric mean
hGLP-1R, sequence (P43220 24-463): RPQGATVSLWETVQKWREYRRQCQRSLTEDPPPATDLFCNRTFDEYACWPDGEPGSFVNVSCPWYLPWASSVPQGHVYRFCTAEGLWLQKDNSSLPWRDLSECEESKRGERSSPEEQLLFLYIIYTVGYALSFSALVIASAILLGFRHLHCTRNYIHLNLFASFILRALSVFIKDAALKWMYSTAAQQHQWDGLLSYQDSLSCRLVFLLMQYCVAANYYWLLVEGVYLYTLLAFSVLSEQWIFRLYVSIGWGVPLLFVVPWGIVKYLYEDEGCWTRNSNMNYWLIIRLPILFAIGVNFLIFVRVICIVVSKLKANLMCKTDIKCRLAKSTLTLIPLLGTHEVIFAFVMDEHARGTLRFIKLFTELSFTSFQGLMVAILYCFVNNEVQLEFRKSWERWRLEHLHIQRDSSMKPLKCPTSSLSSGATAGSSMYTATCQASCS
Outline: as §1

Row | Structure (SMILES) | Emax (hGIPR; HEK293, cAMP, 37° C., 0.1% bovine casein and 1.0% human serum albumin, read-out: hGIPR Emax, % ± SEM) | Emax (hGIPR; HEK293, cAMP, 37° C., 0.1% bovine casein, arithmetic mean, read-out: hGIPR Emax, % ± SEM) | EC50 (hGIPR; 37° C., 0.1% bovine casein (no human serum albumin), geometric mean, read-out: hGIPR EC50, nM (SEM, n)) | EC50 (hGIPR; 37° C., 0.1% bovine casein and 1.0% human serum albumin, geometric mean (SEM, n), read-out: hGIPR EC50, nM (SEM, n)) | EC50 (hGCGR; cAMP, 0.1% bovine casein (no human serum albumin), geometric mean, read-out: hGCGR EC50, nM (SEM, n)) | EC50 (hGCGR; cAMP, 0.1% bovine casein and 1.0% human serum albumin, geometric mean (SEM, n), read-out: hGCGR EC50, nM (SEM, n)) | Emax (hGLP-1R; 0.1% bovine casein and 1.0% human serum albumin) | Emax (hGLP-1R; 0.1% bovine casein, arithmetic mean) | EC50 (hGLP-1R; read-out: hGLP-1R EC50, nM (SEM, n)) | Emax (hGIPR; HEK293, read-out: hGIPR Emax, % ± SEM, 0.1% bovine casein and 1.0% human serum albumin, 37° C.) | EC50 (hGIPR; hGIPR EC50, nM (SEM, n), 37° C., 0.1% bovine casein (no human serum albumin), geometric mean) | EC50 (hGCGR; hGCGR EC50, nM (SEM, n), 0.1% bovine casein and 1.0% human serum albumin, geometric mean) | EC50 (hGCGR; hGCGR EC50, nM (SEM, n), cAMP, 0.1% bovine casein (no human serum albumin), geometric mean) | EC50 (hGLP-1R; hGLP-1R EC50, nM (SEM, n))
1 | CC[C@H](C)[C@H](NC(=O)[C@H](CC(C)C)NC(=O)[C@](C)(Cc1ccc(O)cc1)NC(=O)[C@@H](CCC(=O)O)NC(=O)[C@@H](NC(=O)[C@H](Cc1ccccc1)NC(=O)[C@H](CCCCNC(=O)COCCOCCNC(=O)COCCOCCNC(=O)CCCCCCCCCCCCC(=O)O)NC(=O)C(C)(C)NC(=O)[C@H](CCC(N)=O)NC(=O)[C@H](C)NC(=O)[C@H](CCCCNC(=O)COCCOCCNC(=O)COCCOCCNC(=O)CCCCCCCCCCCCC(=O)O)NC(=O)[C@H](CCCN)NC(=O)[C@H](CC(=O)O)NC(=O)[C@H](CC(C)C)NC(=O)[C@](C)(CC(C)C)NC(=O)[C@@H](NC(=O)C(C)(C)NC(=O)[C@@H](NC(=O)[C@H](CC(=O)O)NC(=O)[C@H](CO)NC(=O)[C@@H](NC(=O)[C@](C)(Cc1ccccc1F)NC(=O)[C@@H](NC(=O)CNC(=O)[C@H](CCC(=O)O)NC(=O)C(C)(C)NC(=O)[C@@H](N)Cc1ccc(O)cc1)[C@@H](C)O)[C@@H](C)O)C(C)C)[C@@H](C)CC)[C@@H](C)CC)C(=O)N[C@@H](CCC(=O)O)C(=O)NCC(=O)NCC(=O)N1CCC[C@H]1C(=O)N[C@@H](CO)C(=O)N[C@@H](CO)C(=O)NCC(=O)N[C@@H](C)C(=O)N1CCC[C@H]1C(=O)N1CCC[C@H]1C(=O)N1CCC[C@H]1C(=O)N[C@@H](CO)C(N)=O [Example 386] | 81.3% | 95.7% | 0.0174 nM | 2.08 nM | > 9950 nM | > 9950 nM | 96.8% | 98.9% | 0.194 nM |  |  |  |  | 
2 | CCCC[C@H](NC(=O)[C@H](CC(=O)O)NC(=O)[C@H](CO)NC(=O)[C@@H](NC(=O)[C@](C)(Cc1ccccc1F)NC(=O)[C@@H](NC(=O)CNC(=O)[C@H](CCC(=O)O)NC(=O)C(C)(C)NC(=O)[C@@H](N)Cc1ccc(O)cc1)[C@@H](C)O)[C@@H](C)O)C(=O)N[C@@H](CO)C(=O)N[C@H](C(=O)N[C@@](C)(CC(C)C)C(=O)N[C@@H](CC(C)C)C(=O)N[C@@H](CC(=O)O)C(=O)N[C@@H](CCCN)C(=O)N[C@@H](CCCCNC(=O)COCCOCCNC(=O)COCCOCCNC(=O)CC[C@H](NC(=O)CCCCCCCCCOc1ccc(C(=O)O)cc1)C(=O)O)C(=O)N[C@@H](C)C(=O)N[C@@H](CCC(N)=O)C(=O)NC(C)(C)C(=O)N[C@@H](CCCCNC(=O)COCCOCCNC(=O)COCCOCCNC(=O)CC[C@H](NC(=O)CCCCCCCCCOc1ccc(C(=O)O)cc1)C(=O)O)C(=O)N[C@@H](Cc1ccccc1)C(=O)N[C@H](C(=O)N[C@H](CCC(=O)O)C(=O)N[C@@](C)(Cc1ccc(O)cc1)C(=O)N[C@@H](CC(C)C)C(=O)N[C@H](C(=O)N[C@@H](CCC(=O)O)C(=O)NCC(=O)NCC(=O)N1CCC[C@H]1C(=O)N[C@@H](CO)C(=O)N[C@@H](CO)C(=O)NCC(=O)N[C@@H](C)C(=O)N1CCC[C@H]1C(=O)N1CCC[C@H]1C(=O)N1CCC[C@H]1C(=O)N[C@@H](CO)C(N)=O)[C@@H](C)CC)[C@@H](C)CC)[C@@H](C)CC [Example 321] |  |  |  |  |  |  |  |  |  | 94.5% | 0.0107 nM | > 9950 nM | > 9950 nM | 0.295 nM
